Calls of active or inactive are those of the source. The rule behind the calls is not given here.
Tested on: M. tuberculosis H37Rv growth inhibition with meropenem
Assay: dose response, H37Rv, with and without meropenem (AID 434987);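 note: growth over 7 days at 37 °C before Alamar Blue read on day 9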
[1] = M. tuberculosis H37Rv growth inhibition, measured here: IC50 without meropenem
[2] = M. tuberculosis H37Rv growth inhibition, measured here: IC90 without meropenem
[3] = measured here: IC90 with meropenem

| SMILES | IC50 | IC50 [1] | IC90 [2] | IC90 [3] |
| --- | --- | --- | --- | --- |
| O=C1C(Cl)=C(N2CCCCC2)C(=O)N1c1ccccc1 | 23.9 µM | > 100 µM | > 100 µM | > 50 µM |
| COc1cccc(NC(=O)c2cc(-c3cccnc3)nc3c(Cl)cccc23)c1 | > 100 µM (inactive) | > 100 µM | > 100 µM | > 100 µM |
| O=C(c1cccc(C(=O)N2CCN(c3ccc(F)cc3)CC2)c1)N1CCN(c2ccc(F)cc2)CC1 | 93.2 µM (inactive) | 95.2 µM | > 100 µM | > 100 µM |
| O=C1NC(c2ccc(Br)cc2)Nc2sc3c(c21)CCC3 (stereo unspecified) | > 100 µM (inactive) | > 100 µM | > 100 µM | > 100 µM |
| CONC(=O)c1cc(OCC(F)(F)F)ccc1OCC(F)(F)F | > 100 µM (inactive) | > 100 µM | > 100 µM | > 100 µM |
| O=C(NN=C(Cc1ccccc1)Cc1ccccc1)c1ccccc1F | 1.64 µM | > 100 µM | > 100 µM | > 50 µM |
| COc1ccc(NC(=O)CSc2nc(N)c(C(=O)Nc3ccc(N(C)C)cc3)s2)cc1 | 22.8 µM | > 100 µM | > 100 µM | > 100 µM |
| O=C(COC(=O)C1=COCCO1)Nc1ccc2c(c1)OCO2 | 3.86 µM | 50 µM | > 100 µM | > 100 µM |
| CCCCNC(=O)c1onc(CSc2ccc(OC)cc2)c1C(=O)O | 23.9 µM (inactive) | 46.4 µM | 53.1 µM | 27.2 µM |
| O=C(NN1C(=O)C2C(C1=O)C1C=CC2C12CC2)c1ccncc1 (stereo unspecified) | 12.3 µM | 55.9 µM | > 100 µM | 13.9 µM |
| CN1CCN(S(=O)(=O)c2ccc(NC(=O)c3ccc(Br)s3)cc2)CC1 | 74.7 µM (inactive) | > 100 µM | > 100 µM | > 100 µM |
| Cn1c(=O)c2ccccc2n2c(CCl)nnc12 | 1.22 µM | 3.19 µM | > 100 µM | 4.65 µM |
| CCCn1c2ccccc2c2nnc(SCC(=O)OCC)nc21 | 27.7 µM (inactive) | 29.1 µM | > 50 µM | > 100 µM |
| CC(C)(C)c1nnc2sc(SCC(=O)c3cccs3)nn2c1=O | 19.3 µM | > 100 µM | > 100 µM | > 100 µM |
| Cc1noc(/C=C/Nc2ccc(F)cc2F)c1[N+](=O)[O-] | > 100 µM (inactive) | > 100 µM | > 100 µM | > 100 µM |
| Cc1ccc(-n2c(SCC(=O)OC(C)C)nnc2-c2ccco2)cc1 | 37.6 µM (inactive) | 62 µM | > 100 µM | > 100 µM |
| CCCc1cc(NC(=O)COC(=O)c2nccnc2N)n(-c2ccccc2)n1 | 49.3 µM (inactive) | 68.4 µM | > 100 µM | 50.8 µM |
| CCC1Nc2ncnc(N3CCN(c4ccccc4)CC3)c2N(Cc2ccc(Br)cc2)C1=O (stereo unspecified) | > 100 µM (inactive) | > 100 µM | > 100 µM | > 100 µM |
| CC1CCN(CCOc2ccc(OCc3ccccc3)cc2)CC1 | 74 µM (inactive) | 98.4 µM | > 100 µM | > 100 µM |
| CC(=O)NC(c1cc(Cl)c2cccnc2c1O)C1CC1 (stereo unspecified) | 23.1 µM | 73.3 µM | > 100 µM | > 100 µM |
| O=C(CCNc1ccc(F)cc1)c1cccc([N+](=O)[O-])c1 | > 100 µM (inactive) | > 100 µM | > 100 µM | > 100 µM |
| COc1cc2cnc(-c3ccsc3)c(-c3ccc(F)cc3)c2cc1OC | > 100 µM (inactive) | > 100 µM | > 100 µM | > 100 µM |

| SMILES | IC50 | IC50 [1] | IC90 [2] | IC90 [3] |
| --- | --- | --- | --- | --- |
| COc1ccc(OC)c(Nc2nc(-c3cccs3)cs2)c1 | 42.8 µM (inactive) | 49 µM | > 100 µM | > 100 µM |
| C[C@@H]1CC=C[C@H]2[C@H]1C(=O)N(Cc1ccccc1)[C@H]2c1ccc(/C=C/c2ccccc2)cc1F | > 100 µM (inactive) | > 100 µM | > 100 µM | > 100 µM |
| CCOC(=O)c1nn(-c2ccccc2)c(C#N)c1NC(=O)c1nn(CC)cc1Br | > 100 µM (inactive) | > 100 µM | > 100 µM | > 100 µM |
| c1ccc(-c2n[nH]c3c2CCC3)cc1 | 3.73 µM | 14.4 µM | 32.4 µM | 46.3 µM |
| C=CCN(C(=O)CN1CCOCC1)c1nc(C)c(-c2ccccc2)s1 | > 100 µM (inactive) | > 100 µM | > 100 µM | > 100 µM |
| CCOc1ccc2nc(SC3CC(=O)N(c4ccc(OC)cc4)C3=O)sc2c1 (stereo unspecified) | > 100 µM (inactive) | > 100 µM | > 100 µM | > 100 µM |
| Cc1ccc(C)c(CSc2nnc(C)c(=O)n2N)c1 | 5.73 µM | 14.1 µM | 39.5 µM | 20.4 µM |
| COC(=O)c1ccc(/C=N/NC(=O)c2cccc(F)c2)cc1 | > 100 µM (inactive) | > 100 µM | > 100 µM | > 100 µM |
| COc1ccc(CNC(=O)C2CCN(S(=O)(=O)c3c(C)noc3/C=C/N(C)C)CC2)cc1 | > 100 µM (inactive) | > 100 µM | > 100 µM | > 100 µM |
| CC12CCC(C/C1=N\N=C1\NC(=O)/C(=C\c3cccc(Br)c3)S1)C2(C)C (stereo unspecified) | 9.74 µM | 26.6 µM | 37.3 µM | 37.7 µM |
| O=C(OCC(=O)c1ccc[nH]1)C1=COCCO1 | 18.3 µM | 88.8 µM | > 100 µM | > 100 µM |
| CCc1ccc(NC(=S)Nc2ccc3cn[nH]c3c2)cc1 | 23.9 µM | > 100 µM | > 100 µM | > 100 µM |
| CCOc1ccc2c(c1)c(C(C)=O)c(C)n2-c1ccccc1 | < 0.2 µM | > 100 µM | > 100 µM | 1.96 µM |
| CC(C)Cn1c2c(c(O)c(C(=O)Nc3ccc(F)cc3)c1=O)CCCC2 | 82.2 µM (inactive) | > 100 µM | > 100 µM | > 100 µM |
| CCN(CC)c1ccc(N=Cc2c(O)n(-c3ccc(Cl)cc3)c(=O)[nH]c2=O)cc1 | 20.9 µM | > 100 µM | > 100 µM | > 100 µM |
| CCn1c(SCc2nc(-c3cccs3)no2)nnc1-c1c[nH]c2ccccc12 | > 100 µM (inactive) | > 100 µM | > 100 µM | > 100 µM |
| Cc1cc(C=C2C(=O)NC(=S)NC2=O)c(C)n1-c1ccc2c(c1)OCO2 | 12.7 µM (inactive) | 24.3 µM | 25.3 µM | 14.5 µM |
| Cc1cc(C)c2sc(N(CCCN(C)C)C(=O)COc3ccc(Cl)cc3)nc2c1 | 36.6 µM (inactive) | 53.6 µM | 80.2 µM | > 100 µM |
| CC(=O)c1ccc(N2CCN(c3ncc(C(F)(F)F)cc3Cl)CC2)cc1 | > 100 µM (inactive) | > 100 µM | > 100 µM | > 100 µM |
| Cc1ccccc1OCC(=O)Nc1ccccc1-c1ccccc1 | 6.04 µM | > 100 µM | > 100 µM | > 100 µM |
| CC/C(=N\NC(=O)c1ccc(N(C)C)cc1)c1ccccc1 | > 100 µM (inactive) | > 100 µM | > 100 µM | > 100 µM |
| CN(C)C1=C(Cl)C(=O)N(c2ccc(Cl)c(Cl)c2)C1=O | 2.73 µM | 7.91 µM | 24 µM | 14.9 µM |

Reference: PubChem BioAssay AID434987 (Southern Research Specialized Biocontainment Screening …, 2010)
